The target of the assay is T1, rTsCTL (TsCTL, Trichinella spiralis type C lectin) (Trichinella spiralis, UniProt A0A0V1BZI5).
T1 construct: gene T01_9679; N-terminal His-tag (pQE-80L), E. coli BL21 (DE3), Ni-NTA purified; 208 aa full length, 24 kDa; C-type lectin domain residues 24-156
The experiment in a line: inhibition of haemagglutination of mouse erythrocytes by rTsCTL. The class given is biochemical. Particulars: rTsCTL 100 ug/mL; 2% mouse erythrocytes; room temperature, 1 h; Ca2+-dependent lectin; TBS pH 8.0; presumed carbohydrate recognition domain.

T1 sequence (A0A0V1BZI5 entry or part of it): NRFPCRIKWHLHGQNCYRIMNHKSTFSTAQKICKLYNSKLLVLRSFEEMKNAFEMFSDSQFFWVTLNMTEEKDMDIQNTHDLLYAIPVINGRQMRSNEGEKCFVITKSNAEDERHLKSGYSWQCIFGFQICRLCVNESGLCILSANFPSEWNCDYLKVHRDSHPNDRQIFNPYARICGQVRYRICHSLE

On to `OC[C@H]1OC(O)[C@@H](O)[C@@H](O)[C@@H]1O` (stereo partly shown) [mannose], for which the minimum inhibitory dose came out at 100 mM.
